test system: HT-22 cells; assay: Protective effect on HT-22 cell damage caused by L-glutamate monosodium salt; assay type: cell-based, mouse; details: HT22 cells, 15 mM L-glutamate; comparison with positive control drug DMF
Procedure: (§1) Well-proliferated HT-22 cells, derived from mouse hippocampal neuronal cells in logarithmic growth phase, were selected, and they were counted after being subjected to trypsin digestion and dispersion. The cell density was adjusted with DMEM/F12 medium (containing 10% FBS and 1% double antibody). The cells were then inoculated in a 96-well plate at a density of 2,000 cells per well, and cultured in a cell incubator at 37° C. in atmosphere containing 5% CO2 for 24 hours. For the control group and the L-glutamate monosodium salt group (model group), serum-free DMEM/F12 medium was added, and the other wells were added with tested compounds of different concentrations; except that the serum-free DMEM/F12 medium was added to the control group. L-glutamate monosodium salt solution at the final concentration of 15 mM was added to the remaining wells. After 24 hours, the cell viability was detected with a luminescent cell viability assay kit.
as §1, with “group,” for “group.”
as §1, with “2.000” for “2,000”, “group,” for “group.”

SMILES | protection of HT22 cells against L-glutamate monosodium salt damage, in words
CON(C)C(=O)/C=C/c1ccccn1 [Compound I-8] | better effects than the positive control drug DMF
CN(C)C(=O)/C=C/c1ccncc1 [Compound I-13] | better effects than the positive control drug DMF
COC(=O)/C=C/c1nccn1C [Compound I-23] | equivalent to that of a positive control drug DMF
Cc1coc(/C=C/C#N)n1 [Compound I-26] | perform far better than the positive control drug DMF
COC(=O)/C=C/c1ncco1 [Compound I-27] | perform better than the positive control drug DMF
COC(=O)/C=C/c1nc(C)cs1 [Compound I-28] | perform far better than the positive control drug DMF

same assay, conditions: Mus musculus, HT-22, 24 h, Table 1; Conc 0.078 μm; 15 mM L-glutamate, 24 hours; L-Glu alone 27.73 (I-5 32.92); read-out: cell viability

SMILES | viability at 0.078 µM
COC(=O)/C=C/c1ccccn1 [Compound I-1] | 38.7%
COC(=O)/C=C/c1cccnc1 [Compound I-3] | 46.8%
COC(=O)/C=C/c1ccncc1 [Compound I-4] | 45.1%
N#C/C=C/c1cccnc1 [Compound I-6] | 40.1%
N#C/C=C/c1ccncc1 [Compound I-7] | 48.8%
CON(C)C(=O)/C=C/c1cccnc1 [Compound I-9] | 35.5%
CON(C)C(=O)/C=C/c1ccncc1 [Compound I-10] | 44.7%
CN(C)C(=O)/C=C/c1ccccn1 [Compound I-11] | 42.4%
CN(C)C(=O)/C=C/c1cccnc1 [Compound I-12] | 48.9%
CN(C)C(=O)/C=C/c1ccncc1 [Compound I-13] | 52.4%

same assay, conditions: Mus musculus, HT-22, 24 h, Table 1; Conc 0.156 μm; 15 mM L-glutamate, 24 hours; L-Glu alone 27.73 (I-5 32.92); read-out: cell viability

SMILES | viability at 0.156 µM
COC(=O)/C=C/c1ccccn1 [Compound I-1] | 45.7%
COC(=O)/C=C/c1cccnc1 [Compound I-3] | 50.6%
COC(=O)/C=C/c1ccncc1 [Compound I-4] | 44.1%
N#C/C=C/c1cccnc1 [Compound I-6] | 43.3%
N#C/C=C/c1ccncc1 [Compound I-7] | 48%
CON(C)C(=O)/C=C/c1ccccn1 [Compound I-8] | 77.8%
CON(C)C(=O)/C=C/c1cccnc1 [Compound I-9] | 35.8%
CON(C)C(=O)/C=C/c1ccncc1 [Compound I-10] | 43%
CN(C)C(=O)/C=C/c1ccccn1 [Compound I-11] | 42.2%
CN(C)C(=O)/C=C/c1ccncc1 [Compound I-13] | 58.8%

same assay, conditions: Mus musculus, HT-22, 24 h, Table 1; Conc 0.313 μm; 15 mM L-glutamate, 24 hours; L-Glu alone 27.73 (I-5 32.92); read-out: cell viability

SMILES | viability at 0.313 µM
COC(=O)/C=C/c1ccncc1 [Compound I-4] | 42.7%
N#C/C=C/c1cccnc1 [Compound I-6] | 42.9%
N#C/C=C/c1ccncc1 [Compound I-7] | 42.8%
CON(C)C(=O)/C=C/c1ccccn1 [Compound I-8] | 70.6%
CON(C)C(=O)/C=C/c1cccnc1 [Compound I-9] | 40.8%
CON(C)C(=O)/C=C/c1ccncc1 [Compound I-10] | 43.7%
CN(C)C(=O)/C=C/c1ccccn1 [Compound I-11] | 46.1%
CN(C)C(=O)/C=C/c1cccnc1 [Compound I-12] | 50.8%

same assay, conditions: Mus musculus, HT-22, 24 h, Table 1; Conc 0.625 μm; 15 mM L-glutamate, 24 hours; L-Glu alone 27.73 (I-5 32.92); read-out: cell viability

SMILES | viability at 0.625 µM
COC(=O)/C=C/c1ccccn1 [Compound I-1] | 47.9%
COC(=O)/C=C/c1cccnc1 [Compound I-3] | 46.8%
COC(=O)/C=C/c1ccncc1 [Compound I-4] | 42.3%
N#C/C=C/c1ccncc1 [Compound I-7] | 40.6%
CON(C)C(=O)/C=C/c1ccccn1 [Compound I-8] | 71.1%
CON(C)C(=O)/C=C/c1cccnc1 [Compound I-9] | 45.8%
CON(C)C(=O)/C=C/c1ccncc1 [Compound I-10] | 43.3%
CN(C)C(=O)/C=C/c1ccccn1 [Compound I-11] | 44.2%
CN(C)C(=O)/C=C/c1cccnc1 [Compound I-12] | 49.5%
CN(C)C(=O)/C=C/c1ccncc1 [Compound I-13] | 64.9%

same assay, conditions: Mus musculus, HT-22, 24 h, Table 1; Conc 1.25 μm; 15 mM L-glutamate, 24 hours; L-Glu alone 27.73 (I-5 32.92); read-out: cell viability

SMILES | viability at 1.25 µM
COC(=O)/C=C/c1ccccn1 [Compound I-1] | 43.5%
COC(=O)/C=C/c1cccnc1 [Compound I-3] | 45.2%
COC(=O)/C=C/c1ccncc1 [Compound I-4] | 41.3%
N#C/C=C/c1cccnc1 [Compound I-6] | 40.9%
N#C/C=C/c1ccncc1 [Compound I-7] | 55.5%
CON(C)C(=O)/C=C/c1ccccn1 [Compound I-8] | 54.6%
CON(C)C(=O)/C=C/c1cccnc1 [Compound I-9] | 41.6%
CON(C)C(=O)/C=C/c1ccncc1 [Compound I-10] | 41.9%
CN(C)C(=O)/C=C/c1ccccn1 [Compound I-11] | 43.6%
CN(C)C(=O)/C=C/c1cccnc1 [Compound I-12] | 45.6%
CN(C)C(=O)/C=C/c1ccncc1 [Compound I-13] | 61.6%

same assay, conditions: Mus musculus, HT-22, 24 h, Table 1; Conc 2.5 μm; 15 mM L-glutamate, 24 hours; L-Glu alone 27.73 (I-5 32.92); read-out: cell viability

SMILES | viability at 2.5 µM
COC(=O)/C=C/c1cccnc1 [Compound I-3] | 47.5%
COC(=O)/C=C/c1ccncc1 [Compound I-4] | 40.5%
N#C/C=C/c1cccnc1 [Compound I-6] | 43%
CON(C)C(=O)/C=C/c1ccccn1 [Compound I-8] | 54.8%
CON(C)C(=O)/C=C/c1cccnc1 [Compound I-9] | 40.1%
CON(C)C(=O)/C=C/c1ccncc1 [Compound I-10] | 47.8%
CN(C)C(=O)/C=C/c1ccccn1 [Compound I-11] | 46.5%
CN(C)C(=O)/C=C/c1cccnc1 [Compound I-12] | 44.2%
CN(C)C(=O)/C=C/c1ccncc1 [Compound I-13] | 59.7%

same assay, conditions: Mus musculus, HT-22, 24 h, Table 1; Conc 5 μm; 15 mM L-glutamate, 24 hours; L-Glu alone 27.73 (I-5 32.92); read-out: cell viability

SMILES | viability at 5 µM
COC(=O)/C=C/c1ccccn1 [Compound I-1] | 38.4%
COC(=O)/C=C/c1cccnc1 [Compound I-3] | 37.3%
COC(=O)/C=C/c1ccncc1 [Compound I-4] | 40.2%
N#C/C=C/c1cccnc1 [Compound I-6] | 40.1%
N#C/C=C/c1ccncc1 [Compound I-7] | 32.2%
CON(C)C(=O)/C=C/c1ccccn1 [Compound I-8] | 50.9%
CON(C)C(=O)/C=C/c1cccnc1 [Compound I-9] | 43.4%
CON(C)C(=O)/C=C/c1ccncc1 [Compound I-10] | 43.4%
CN(C)C(=O)/C=C/c1ccccn1 [Compound I-11] | 35.4%
CN(C)C(=O)/C=C/c1cccnc1 [Compound I-12] | 39.3%
CN(C)C(=O)/C=C/c1ccncc1 [Compound I-13] | 51.5%

same assay, conditions: Mus musculus, HT-22, 24 h, Table 1; Conc 10 μm; 15 mM L-glutamate, 24 hours; L-Glu alone 27.73 (I-5 32.92); read-out: cell viability

SMILES | viability at 10 µM
COC(=O)/C=C/c1ccccn1 [Compound I-1] | 33.4%
COC(=O)/C=C/c1cccnc1 [Compound I-3] | 31.2%
COC(=O)/C=C/c1ccncc1 [Compound I-4] | 37.6%
N#C/C=C/c1cccnc1 [Compound I-6] | 42.6%
CON(C)C(=O)/C=C/c1ccccn1 [Compound I-8] | 53%
CON(C)C(=O)/C=C/c1cccnc1 [Compound I-9] | 40.1%
CON(C)C(=O)/C=C/c1ccncc1 [Compound I-10] | 37.5%
CN(C)C(=O)/C=C/c1ccccn1 [Compound I-11] | 40.3%
CN(C)C(=O)/C=C/c1cccnc1 [Compound I-12] | 44.3%
CN(C)C(=O)/C=C/c1ccncc1 [Compound I-13] | 51.6%

same assay, conditions: Mus musculus, HT-22; Table 2; Conc 0.078 μM; 15 mM L-glutamate, 24 hours; L-Glu alone 27.83; read-out: Visibility %

SMILES | viability at 0.078 µM
COC(=O)NC(=O)/C=C/c1cccnc1 [Compound I-16] | 41.3%
CN(C)C(=O)/C=C/c1ncccn1 [Compound I-19] | 47.1%
COC(=O)/C=C/c1nccn1C [Compound I-23] | 65.4%

same assay, conditions: Mus musculus, HT-22; Table 2; Conc 0.156 μM; 15 mM L-glutamate, 24 hours; L-Glu alone 27.83; read-out: Visibility %

SMILES | viability at 0.156 µM
COC(=O)NC(=O)/C=C/c1ccncc1 [Compound I-17] | 48.3%
CN(C)C(=O)/C=C/c1ncccn1 [Compound I-19] | 39.2%
CN(C)C(=O)/C=C/c1ccncn1 [Compound I-20] | 43.4%
CN(C)C(=O)/C=C/c1nccn1C [Compound I-24] | 39.6%

same assay, conditions: Mus musculus, HT-22; Table 2; Conc 0.313 μM; 15 mM L-glutamate, 24 hours; L-Glu alone 27.83; read-out: Visibility %

SMILES | viability at 0.313 µM
CN(C)C(=O)/C=C/c1ncccn1 [Compound I-19] | 37.5%
COC(=O)/C=C/c1nccn1C [Compound I-23] | 38.3%
CN(C)C(=O)/C=C/c1nccn1C [Compound I-24] | 38%

same assay, conditions: Mus musculus, HT-22; Table 2; Conc 0.625 μM; 15 mM L-glutamate, 24 hours; L-Glu alone 27.83; read-out: Visibility %

SMILES | viability at 0.625 µM
COC(=O)NC(=O)/C=C/c1cccnc1 [Compound I-16] | 34.2%
COC(=O)NC(=O)/C=C/c1ccncc1 [Compound I-17] | 51.2%

same assay, conditions: Mus musculus, HT-22; Table 2; Conc 1.25 μM; 15 mM L-glutamate, 24 hours; L-Glu alone 27.83; read-out: Visibility %

SMILES | viability at 1.25 µM
COC(=O)/C=C/c1ncc[nH]1 [Compound I-22] | 40%
COC(=O)/C=C/c1nccn1C [Compound I-23] | 39%

same assay, conditions: Mus musculus, HT-22; Table 2; Conc 2.5 μM; 15 mM L-glutamate, 24 hours; L-Glu alone 27.83; read-out: Visibility %

SMILES | viability at 2.5 µM
COC(=O)NC(=O)/C=C/c1ccccn1 [Compound I-15] | 43.1%
COC(=O)NC(=O)/C=C/c1cccnc1 [Compound I-16] | 40.4%
CN(C)C(=O)/C=C/c1ccncn1 [Compound I-20] | 57.1%
CON(C)C(=O)/C=C/c1ccncn1 [Compound I-21] | 60.3%
COC(=O)/C=C/c1ncc[nH]1 [Compound I-22] | 42.7%
CN(C)C(=O)/C=C/c1nccn1C [Compound I-24] | 35.7%

same assay, conditions: Mus musculus, HT-22; Table 2; Conc 5 μM; 15 mM L-glutamate, 24 hours; L-Glu alone 27.83; read-out: Visibility %

SMILES | viability at 5 µM
COC(=O)NC(=O)/C=C/c1ccncc1 [Compound I-17] | 33.6%
COC(=O)/C=C/c1ncccn1 [Compound I-18] | 40.9%

same assay, conditions: Mus musculus, HT-22; Table 2; Conc 10 μM; 15 mM L-glutamate, 24 hours; L-Glu alone 27.83; read-out: Visibility %

SMILES | viability at 10 µM
COC(=O)NC(=O)/C=C/c1ccccn1 [Compound I-15] | 34.1%
COC(=O)NC(=O)/C=C/c1ccncc1 [Compound I-17] | 31.2%
CN(C)C(=O)/C=C/c1ccncn1 [Compound I-20] | 51.2%
CON(C)C(=O)/C=C/c1ccncn1 [Compound I-21] | 58.4%
